Test results published in patent US6680025B2, “Device and method for photoactivation” (Cerus Corporation, priority 1989, dated 2004).
≈ marks a conversion by molar mass, not a printed value.

Legend:
[1] = system: DNA polymerase I from E. coli. B; details: covalently bound compound; cited from earlier work
[2] = system: PCR'd MACS 1555 target; experiment: Inhibition of PCR by non-psoralen compounds in the absence of light; assay type: biochemical
Description: The compounds tested were the following: 1) ethidium bromide (a Phenanthridine, see Table 1), 2) xylene cylanol (an Organic Dye, see Table 1), 3) bromphenol blue (an Organic Dye, see Table 1), 4) coumarin and 5) methylene blue (a Phenazathionium Salt, see Table 1).
A separate experiment examined PCR inhibition with coumarin and methylene blue in the absence of light. The following concentrations of methylene blue were tried: 4.3×10^−2, 4.3×10^−3, 4.3×10^−4 and 4.3×10^−5 M. Concentrations of coumarin tried included: 7×10^−3, 7×10^−4, 7×10^−5 and 7×10^−6 M. Compound was added to PCR tube containing α-^32P-dCTP and target (1 μl […].; PCR'd MACS 1555 per assay-point). PCR was carried out for 30×cycles. Samples were loaded onto a 12%/8 M urea gel.

[3] = as reported by Dall'Acqua et al.; cited from earlier work
[4] = Solubility of photoreactive compounds in 1×TE; assay type: physicochemical; details: excess compound heated 50-70° C., stirred at room temperature, filtered, optical density
Procedure: The solubilities of AMIP, AMDMIP, DMIP, MIP and isopsoralen (IP) were determined experimentally according to the scheme set forth in FIG. 5. To perform the solubility measurement, it was first necessary to establish known optical densities for a 1 μg/ml solution of each compound. These were determined by preparing either ethanolic or aqueous stocks of each compound at known concentrations in 1×TE, then measuring the optical density of each solution. From this information, the absorption of a 1 μg/ml solution was computed. Alternatively, the extinction coefficient may be thus determined and used in the same fashion. In this manner, the following absorption data was collected:
Following this step, undissolved compound was removed by filtration using a 0.2 u nylon-66 syringe filter (Arco LC13; Gelman). The concentration of the remaining soluble compound was then determined by measuring the optical density of the filtrate and computing the solubility from the known optical density of a 1 μg/ml solution of that compound. The solubility of the compounds was thus determined to be as follows: […]

[5] = system: human placental DNA; experiment: PCR in presence of AMDMIP and DMSO co-solvent; assay type: biochemical; details: no AMDMIP, 0% DMSO gave 139,000
Procedure: In this example, the effect of DMSO on PCR amplification in the presence of high concentrations of sterilizing compound (AMDMIP) was investigated. Samples were prepared for PCR which contained 1 μg of human placental DNA either with or without (unirradiated) AMDMIP (200 μg/ml). The samples were amplified 30 cycles under standard PCR conditions in the presence of 0%, 1%, 5% or 10% DMSO. The reaction mix contained α-^32P-dCTP. Following amplification, the samples were analyzed by PAGE (data not shown).

[6] = system: Taq I DNA polymerase; experiment: Primer extension on site-specific monoadducted 71-mer, Taq polymerase; assay type: biochemical, Thermus aquaticus; details: 55° C., single extension
Procedure: In this experiment, monoadducted 71-mers (as well as unmodified 71-mers) were used in template-dependent enzymatic extension. AMIP, AMDMIP, and MIP 71-mer monoadducts were made as in Example 42. Extension was carried out as in Example 43 except that in this experiment, Taq I DNA polymerase, a thermostable DNA polymerase isolated from Thermus aquaticus (Stratagene, Inc., La Jolla, Calif.) was assessed for its ability to read past isopsoralens.
The reaction mixture was in 80 μl total volume and comprised 1×Taq buffer, 200 μM each of dNTP's, 0.05 units of Taq per μl of reaction volume; 1×10^−9 M in 71-mer MA; 1×10^−8 M in ^32P-labelled SK-39. Each reaction was set up with everything except Taq polymerase. The samples were initially heated to 95° C. for 5 mins, then incubated at 55° C. for 3 mins. The extension reaction was initiated by addition of Tas polymerase. At the indicated time points (0.5, 1.0, 5.0 mins), 20 μl of the reaction mix was removed to a tube containing 1 μl of 0.5 M EDTA to stop the reaction. All products were analyzed on a 20% polyacrylamide, 7 M urea gel followed by autoradiography.
This experiment investigated whether blocking of Tag polymerase by monoadducts is complete or whether monoadducts can be bypassed by the enzyme. In order to view the process of bypass syrthesis, it is necessary to cycle the extension reaction of the primer with the 71-mer templates. Cycling in this case consists of mixing the primer with the 71-mer template, adding Taq polymerase and appropriate reagents, extending, heating to induce strand separation, reannealing of the primer to the 71-mer template, extending again, and subsequent stand separation. This process can be repeated as necessary. During this process, only the complement of the 71-mer template is being synthesized. It is accumulating in a linear fashion with the number of thermal cycles (in contrast to PCR where both strands are being synthesized and accumulate geometrically).
The templates and reaction conditions were as in Example 44 above except that three samples were used for each monoadduct and each sample was tested under different conditions:
Samples (1): one sample for each monoadduct was used to carry out extension at 55° C. as in Example 43;
Samples (2): one sample for each monoadduct was used to carry out extension by the following series of steps: denaturing at 95° C.; incubating for 30 seconds at 55° C.; adding Taq polymerase for 3 minutes at 55° C.; cooling the reaction for 1 minute at 7° C.; stopping the reaction with EDTA for one minute at 95° C.
Samples (3): one sample for each monoadduct was used to carry out extension by repeating the following series of steps nine times: denaturing at 95° C.; incubating for 30 seconds at 55° C.; adding Taq polymerase for 3 minutes at 55° C.; cooling the reaction for 1 minute at 7° C. At the end, the reaction is stopped with EDTA for one minute at 95° C.
To investigate this question further, a new 5-MIP monoadducted 71-mer was prepared by repurification of the HPLC purified 5-MIP ronoadducted 15-mer by PAGE. In this way, more of the non-monoadducted 15-mer was removed prior to ligation. The purified 71-mer was then used as template in an extension experiment as described in Example 45. After 10 cycles, there was still evidence of extension product (FIG. 34).
Monoadducted 71-mer was constructed as described, but for HMT. Extension was carried out and analyzed as before on PAGE. […] Full length 71-mer is not made and a shorter strand corresponding to the position of the HMT adduct was made.

[7] = system: E. coli polymerase I; details: cited from earlier work
[8] = target: Taq polymerase (Thermus aquaticus, UniProt P19821); experiment: Taq primer extension of 71-mer after random addition of compound or photoproduct; assay type: biochemical; details: photobiotin 6×10^−6 M
Chain of Taq polymerase (P19821 whole entry): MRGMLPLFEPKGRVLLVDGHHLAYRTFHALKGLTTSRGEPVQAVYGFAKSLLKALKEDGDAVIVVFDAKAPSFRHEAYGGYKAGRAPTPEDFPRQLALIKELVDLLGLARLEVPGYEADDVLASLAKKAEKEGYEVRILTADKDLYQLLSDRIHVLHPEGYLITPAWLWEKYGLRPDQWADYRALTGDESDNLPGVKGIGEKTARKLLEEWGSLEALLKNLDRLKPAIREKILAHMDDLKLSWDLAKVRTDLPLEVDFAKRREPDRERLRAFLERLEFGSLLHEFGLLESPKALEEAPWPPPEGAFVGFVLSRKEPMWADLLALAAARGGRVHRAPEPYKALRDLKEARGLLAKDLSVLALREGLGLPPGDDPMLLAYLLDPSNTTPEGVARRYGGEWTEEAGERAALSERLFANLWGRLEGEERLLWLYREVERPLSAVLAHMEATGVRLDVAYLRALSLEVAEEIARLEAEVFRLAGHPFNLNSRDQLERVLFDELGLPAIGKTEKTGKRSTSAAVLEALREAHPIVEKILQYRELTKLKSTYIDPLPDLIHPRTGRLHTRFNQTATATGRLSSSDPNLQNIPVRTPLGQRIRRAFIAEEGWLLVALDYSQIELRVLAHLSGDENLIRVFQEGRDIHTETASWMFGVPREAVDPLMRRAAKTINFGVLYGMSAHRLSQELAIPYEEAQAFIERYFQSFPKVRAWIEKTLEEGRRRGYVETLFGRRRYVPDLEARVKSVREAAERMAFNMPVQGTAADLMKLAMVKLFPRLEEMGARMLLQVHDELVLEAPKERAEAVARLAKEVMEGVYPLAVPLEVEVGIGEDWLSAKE
Description: In this experiment, the ability of AMIP, AMDMIP and MIF to block replication of 71-mer is investigated by randomly adding each compound to the 71-mer. Of course, addition may only be random in the sense that one or more adducts may be formed with any one strand of nucleic acid. The actual placement of the isopsoralen may be governed by preferential binding at particular sites (e.g. A:T). In addition to blockage by random adducts, photoproducts of the various isopsoralens may be providing an inhibitory effect. No attempt to separate the effects of photoproduct from the effects of covalent adducts on the 71-mer template was made in this series of experiments.
In these experiments, the 71-mer template (10^−9 M) was primed with ^32P-SK-39 (10^−8) and extended with Taq polymerase in a total volume of […]. The dNTP concentration was 200 μM. In the control samples, the 71-mer, the primer, and the dNTPs were mixed in Taq buffer in a volume of 18 p1. These samples were initially denatured at 95° C. for 5 minutes, followed by equilibration at 55° C. for 3 minutes. Taq enzyme was then added (0.5 units) and the extension reaction was carried out for 5 minutes at 55° C. The reaction was stopped by making the solution 10 mM in EDTA. In another set of samples, the 71-mer in 10 μl was mixed with either AMIP (200 μg/ml), AMDMIP (200 μg/ml), or MIP (60 μg/ml). Half of these samples were irradiated for 15 minutes on the CE-I device at 25° C. The other half was kept in the dark as controls. These samples were then mixed with the primer and dNTPs as before, and were subjected to the same thermal profile and extension reactions as the samples that were described earlier. The results were examined by PAGE. The extended product bands were identified by autoradiography, excised and counted (data not shown). […]
71-mer was made up in Taq buffer. Samples were prepared as follows: 1) dark control samples were not subjected to activating light; 2) 10 μl samples of the 71-mer (2×10^−9 M) were irradiated in the presence of 200 μg/ml AMDMIP, and 3) 10 μl samples of a 200 μg/ml solution of AMDMIP were irradiated in the absence of the 71-mer target. All irradiations were carried out with the CE-I device at 25° C. After preparing the above samples, unirradiated AMDMIP was added to one set of the dark control samples. Another set of dark controls received irradiated AMDMIP. ^32P-SK-39 primer and dNTPs were then added to all samples and the volume was adjusted to 18 μl. These samples were denatured at 95° C. for 5 minutes, followed by equilibration at 55° C. for 3 minutes. Taq polymerase was then added and the extension reaction was carried out for 5 minutes. The reaction was stopped by bringing the samples to 10 mM in EDTA. The final concentrations of all reagents during the extension reactions were: […]

[9] = system: HIV 115-mer; experiment: PCR with pre-irradiated photobiotin or monoazide ethidium chloride; assay type: biochemical
Procedure: In this experiment, photobiotin and monoazide ethidium chloride were tested as PCR sterilization reagents. The temporal steps were performed to examine photoproduct effects (if any). Solutions of photobiotin and monoazide ethidium chloride were made up in 1×Taq buffer. […] Each compound solution was divided into two parts: One part was irradiated under a GE sunlamp through a pyrex filter (300nm cut-off); the other half was irradiated under a GE sunlamp through a 2.9 M NaNO2 liquid filter (400 nm cut-off). Irradiations were carried out on ice for 15 minutes. After irradiation, aliquots of each tube were carried over into tubes containing PCR reagents and target (HIV 115-mer); PCR was then carried out for 30 cycles in the presence of α-^32P-dCTP. After amplification aliquots were analyzed on 12% acrylamide/8M urea gels.

Structure (SMILES): COc1c2occc2cc2ccc(=O)oc12 [Compound 8-MOP, 8-methoxypsoralen]
- loss of template activity of modified DNA [1]: 97%

Structure (SMILES): O=c1ccc2ccccc2o1 [Coumarin, coumarin]
- inhibition of PCR in the absence of light ([2]; dark control, coumarin 7×10^−3 to 7×10^−6 M): did not inhibit PCR at any of the concentrations tested

Structure (SMILES): COc1cc(OC)c2ccc(=O)oc2c1 [DMC, 5,7-dimethoxycoumarin]
- loss of template activity of modified DNA [1]: 50%

Structure (SMILES): Cc1cc2c(ccc3c(C)cc(=O)oc32)o1 [DMIP, 4,5′-Dimethylisopsoralen]
- maximum aqueous solubility [3]: 8 µg/mL
- Solubility in 1 × TE [4]: nd** (nd = not detectable (solubility was less than 1 μg/ml))

Structure (SMILES): C[S+](C)[O-] [DMSO, dimethyl sulfoxide]
- product band CPM (average of duplicate samples) ([5]; 1% DMSO): 137,000 CPM
- product band CPM (average of duplicate samples) ([5]; 5% DMSO): 94,000 CPM
- product band CPM (average of duplicate samples) ([5]; 10% DMSO): 76,000 CPM

Structure (SMILES): Cc1oc2c(C)c3oc(=O)cc(C)c3cc2c1CO [HMT, 4′-hydroxymethyl-4,5′,8-trimethylpsoralen]
- Taq polymerase extension on 71-mer monoadduct template [6]: stop Tag polymerase
- inhibition of polymerase by covalently bound monoadducts ([7]; nick-translating a double-stranded template): not inhibited
- inhibition of polymerase by monoadducts ([7]; single-stranded bacteriophage DNA template): inhibited

Structure (SMILES): O=c1ccc2ccc3occc3c2o1 [IP, isopsoralen, reference compound]
- solubility ([4]; 1×TE buffer, aqueous buffer, thermodynamic from solid): 2 µg/mL (≈ 10.7 µM)

Structure (SMILES): CN(C)c1ccc2nc3ccc(=[N+](C)C)cc-3sc2c1 [methylene blue]
- concentrations that inhibited PCR in the absence of light ([2]; tested 4.3×10^−2 to 4.3×10^−5 M, 30 cycles): above 4.3×10^−5 M

Structure (SMILES): CC[n+]1c(-c2ccccc2)c2cc(N=[N+]=[N-])ccc2c2ccc(N)cc21 [monoazide ethidium chloride, reference compound]
- extension of 71-mer, dark control ([8]; monoazide ethidium 1.4×10^−3 M, kept in the dark): inhibition of extension
- inhibition of PCR by pre-irradiated compound ([9]; 3×10^−6 M to 3×10^−10 M, GE sunlamp 15 minutes on ice, 30 cycles): does not inhibit PCR

Structure (SMILES): CN(CCCNC(=O)CCCC[C@@H]1SC[C@@H]2NC(=O)N[C@@H]21)CCCNc1ccc(N=[N+]=[N-])cc1[N+](=O)[O-] [photobiotin, reference compound]
- extension of 71-mer after irradiation with compound ([8]; GE sunlamp 15 minutes on ice): inhibition only after irradiation
- concentration of pre-irradiated compound that shut down PCR ([9]; range 7×10^−4 M to 7×10^−10 M, 115-mer amplified at all lower concentrations): 700 µM
